Results published in patent US20240009304A1, “USE OF NGF ANTIBODY IN CIPN PAIN” (Dartsbio Pharmaceuticals Ltd., priority 2020, published 2024).
Several values for one entry are separate records, joined by “and”; a condition that tells them apart may be missing. Equal values may be shown once.

Legend:
Type in all cases: in vivo
[1] = test system: vincristine-induced neuropathic pain model in SD rats; assay: acetone cold allodynia, vincristine-induced neuropathic pain model; conditions: s.c.
Procedure: (§1) All female SD rats were measured on day −5 (D-5) and day −4 (D-4) for basal values of von Frey mechanical allodynia and acetone cold allodynia (the day on formally establishing the model with paclitaxel administration was recorded as DO). SD rats were randomly divided into 5 groups according to body weight, which were blank control group, vehicle control (Vehicle control), s.c., D-3/D3/D9 group, DS002 0.1 mg/kg, s.c., D-3/D3/D9 group, DS002 0.5 mg/kg, s.c., D-3/D3/D9 group, DS002 2.5 mg/kg, s.c., D-3/D3/D9 group, respectively. Except for the blank control group, the other groups of animals were injected intraperitoneally with a chemotherapeutic agent solution on DO, D2, D4 and D6, respectively, to establish a chemotherapeutic agent-induced neuropathic pain model in SD rats. Wherein, von Frey is a stimulating material used in the measurement method of mechanical stimulation pain threshold; acetone is a stimulating substance used in the measurement method of cold pain threshold.
(§2) Except for the blank control group, the other four groups were administered subcutaneously with DS002 on D-3, D3 and D9, respectively, and the von Frey echanical allodynia and acetone cold allodynia were measured on D7, D14 and D8, D15, respectively. The mechanical paw withdrawal threshold and the score and frequency of acetone-induced foot withdrawal behavior at the corresponding time point were recorded (for testing and calculation methods, see Yoon et al., pain, 59(3), 369-376. & Flatters et al., pain, 2004, 109 (1-2):150-161).
(§3) With reference to the above-mentioned experimental method and Example 1, except for the blank control group, the other groups of animals were injected intraperitoneally with a vincristine solution (0.1 mg/kg) from DO to D9, respectively, to establish a vincristine-induced neuropathic pain model in SD rats, namely, the CIPN pain model.

[2] = test system: vincristine-induced neuropathic pain model in SD rats; assay: von Frey mechanical allodynia, vincristine-induced neuropathic pain model; conditions: for Mean value of mechanical paw withdrawal threshold: s.c.
Procedure: as §1, §2, §3

[3] = test system: paclitaxel-induced neuropathic pain model in SD rats; assay: von Frey mechanical allodynia, paclitaxel-induced neuropathic pain model; conditions: for Mean value of mechanical paw withdrawal threshold: s.c., D-3/D3/D9
Procedure: as §1, §2
(§4) The above experimental method was used, except for the blank control group, the other groups of animals were injected intraperitoneally with a chemotherapeutic agent solution (4 mg/kg) on DO, D2, D4 and D6, respectively, to establish a paclitaxel-induced neuropathic pain model in SD rats, namely the CIPN pain model.

[4] = test system: cisplatin-induced neuropathic pain model in SD rats; assay: acetone cold allodynia, cisplatin-induced neuropathic pain model; conditions: for Mean value of response frequency of cold allodynia / Mean value of acetone-induced foot withdrawal behavior total score: s.c.
Procedure: as §2
(§5) With reference to the above-mentioned experimental method and Example 1, except for the blank control group, the animals of other groups were injected with a cisplatin solution (4 mg/kg) in the tail veins on DO and D6, respectively, to establish a cisplatin-induced neuropathic pain model in SD rats, namely the CIPN pain model.
(§6) The basal values of the mechanical allodynia and cold allodynia were measured on day 5 (D-5) and day 4 (D-4) before modeling. On day 3 (D-3), the normal rats were divided into 4 groups by random block method and administered according to their body weight. The average weight of animals in each group after grouping was about 250 g. As for the animals of blank control group, vehicle control, s.c., D-3/D3/D9/D16 group, test sample DS002, 0.02 mg/kg, s.c., D-3/D3/D9/D16 group and test sample DS002, 0.5 mg/kg, s.c., D-3/D3/D9/D16 group, the basal values of mechanical paw withdrawal threshold were 26.00±0.00 g, 23.95±1.63 g, 23.50±1.68 g and 22.77±1.71 g, respectively; the basal values of acetone-induced foot withdrawal behavior total score were 0.50±0.34, 0.55±0.31, 0.27±0.19 and 0.55±0.28, respectively; the basal values of the response frequency were 6.00±4.27%, 7.27±4.07%, 3.64±2.44% and […], respectively.

[5] = test system: paclitaxel-induced neuropathic pain model in SD rats; assay: acetone cold allodynia, paclitaxel-induced neuropathic pain model; conditions: s.c.
Procedure: as §1, §2, §4

[6] = test system: cisplatin-induced neuropathic pain model in SD rats; assay: von Frey mechanical allodynia, cisplatin-induced neuropathic pain model; conditions: for Mean value of mechanical paw withdrawal threshold: s.c.
Procedure: as §1, §2, §5, §6

[7] = 0.1 mg/kg, D-3/D3/D9, D-4 basal value before administration
[8] = 0.5 mg/kg, D-3/D3/D9, D-4 basal value before administration
[9] = 2.5 mg/kg, D-3/D3/D9, D-4 basal value before administration
[10] = 0.5 mg/kg, D-3/D3/D9/D16, D22, listed as D5002

Substance: DS002: humanized recombinant monoclonal antibody targeting nerve growth factor, IgG1 subtype, kappa light chain; heavy/light chain SEQ ID NO:3 and 4
- Mean value of response frequency of cold allodynia ([1]; 0.1 mg/kg, D-3/D3/D9, D8): 58.00±6.96% and 58.00%
- Mean value of acetone-induced foot withdrawal behavior total score ([1]; 0.1 mg/kg, D-3/D3/D9, D15): 3.00
- Mean value of response frequency of cold allodynia ([1]; 0.1 mg/kg, D-3/D3/D9, D15): 42.00%
- Mean value of acetone-induced foot withdrawal behavior total score [1, 7]: 0.10
- Mean value of response frequency of cold allodynia [1, 7]: 2.00%
- Mean value of response frequency of cold allodynia ([1]; 0.5 mg/kg, D-3/D3/D9, D8): 44.00±7.77% and 44.00%
- Mean value of acetone-induced foot withdrawal behavior total score ([1]; 0.5 mg/kg, D-3/D3/D9, D15): 2.80
- Mean value of response frequency of cold allodynia ([1]; 0.5 mg/kg, D-3/D3/D9, D15): 34.00%
- Mean value of acetone-induced foot withdrawal behavior total score [1, 8]: 0.30
- Mean value of response frequency of cold allodynia [1, 8]: 4.00%
- Mean value of response frequency of cold allodynia ([1]; 2.5 mg/kg, D-3/D3/D9, D8): 44.00±4.99% and 44.00%
- Mean value of acetone-induced foot withdrawal behavior total score ([1]; 2.5 mg/kg, D-3/D3/D9, D15): 1.80
- Mean value of response frequency of cold allodynia ([1]; 2.5 mg/kg, D-3/D3/D9, D15): 24.00%
- Mean value of acetone-induced foot withdrawal behavior total score [1, 9]: 0.30
- Mean value of response frequency of cold allodynia [1, 9]: 4.00%
- Mean value of mechanical paw withdrawal threshold ([2]; 0.1 mg/kg, D-3/D3/D9, D7): 7.02 ± 1.05 g
- Mean value of mechanical paw withdrawal threshold ([2]; 0.1 mg/kg, D-3/D3/D9, D14): 9.76 ± 1.10 g
- Mean value of mechanical paw withdrawal threshold ([2]; 0.1 mg/kg, D-3/D3/D9, D-5 basal value before administration): 15.00 ± 0.00 g
- Mean value of mechanical paw withdrawal threshold ([2]; 0.5 mg/kg, D-3/D3/D9, D7): 8.20 ± 1.78 g
- Mean value of mechanical paw withdrawal threshold ([2]; 0.5 mg/kg, D-3/D3/D9, D14): 11.00 ± 0.94 g
- Mean value of mechanical paw withdrawal threshold ([2]; 0.5 mg/kg, D-3/D3/D9, D-5 basal value before administration): 15.00 ± 0.00 g
- Mean value of mechanical paw withdrawal threshold ([2]; 2.5 mg/kg, D-3/D3/D9, D7): 8.43 ± 0.92 g
- Mean value of mechanical paw withdrawal threshold ([2]; 2.5 mg/kg, D-3/D3/D9, D14): 13.31 ± 0.76 g
- Mean value of mechanical paw withdrawal threshold ([2]; 2.5 mg/kg, D-3/D3/D9, D-5 basal value before administration): 14.16 ± 0.60 g
- mechanical paw withdrawal threshold of rats compared with the Vehicle control ([2]; summary in words): significantly increased
- Mean value of mechanical paw withdrawal threshold ([3]; 0.1 mg/kg, D7, paclitaxel model): 8.90 ± 1.20 g
- Mean value of mechanical paw withdrawal threshold ([3]; 0.1 mg/kg, D14, paclitaxel model): 10.55 ± 1.04 g
- Mean value of mechanical paw withdrawal threshold ([3]; 0.1 mg/kg, D-5 basal value before administration, paclitaxel model): 13.48 ± 1.03 g
- Mean value of mechanical paw withdrawal threshold ([3]; 0.5 mg/kg, D7, paclitaxel model): 10.40 ± 1.33 g
- Mean value of mechanical paw withdrawal threshold ([3]; 0.5 mg/kg, D14, paclitaxel model): 10.94 ± 1.16 g
- Mean value of mechanical paw withdrawal threshold ([3]; 0.5 mg/kg, D-5 basal value before administration, paclitaxel model): 13.25 ± 0.98 g
- Mean value of mechanical paw withdrawal threshold ([3]; 2.5 mg/kg, D7, paclitaxel model): 7.74 ± 1.19 g
- Mean value of mechanical paw withdrawal threshold ([3]; 2.5 mg/kg, D14, paclitaxel model): 12.30 ± 0.94 g
- Mean value of mechanical paw withdrawal threshold ([3]; 2.5 mg/kg, D-5 basal value before administration, paclitaxel model): 13.50 ± 0.82 g
- pain threshold ([3]; 0.1-2.5 mg/kg subcutaneously every 6 days for 3 consecutive times, paclitaxel-induced rat neuropathic pain model, summary in words): preventatively increased
- mechanical paw withdrawal threshold of rats compared with the Vehicle control ([3]; paclitaxel model, summary in words): significantly increased
- Mean value of response frequency of cold allodynia ([4]; 0.02 mg/kg, D-3/D3/D9/D16, D8): 7.27±4.07% and 7.27%
- Mean value of response frequency of cold allodynia ([4]; 0.02 mg/kg, D-3/D3/D9/D16, D15): 16.36±5.92% and 16.36%
- Mean value of response frequency of cold allodynia ([4]; 0.02 mg/kg, D-3/D3/D9/D16, D22): 9.09±4.15% and 9.09%
- Mean value of response frequency of cold allodynia ([4]; 0.02 mg/kg, D-3/D3/D9/D16, D-4 basal value before administration): 3.64±2.44% and 3.64%
- Mean value of response frequency of cold allodynia ([4]; 0.5 mg/kg, D-3/D3/D9/D16, D8): 7.27±4.07% and 7.27%
- Mean value of response frequency of cold allodynia ([4]; 0.5 mg/kg, D-3/D3/D9/D16, D15): 7.27±4.07% and 7.27%
- Mean value of acetone-induced foot withdrawal behavior total score ([4]; 0.5 mg/kg, D-3/D3/D9/D16, D22): 0.73
- Mean value of response frequency of cold allodynia ([4]; 0.5 mg/kg, D-3/D3/D9/D16, D22): 10.91%
- Mean value of acetone-induced foot withdrawal behavior total score [4, 10]: 0.73±0.30
- Mean value of response frequency of cold allodynia [4, 10]: 10.91±4.15%
- Mean value of response frequency of cold allodynia ([4]; 0.5 mg/kg, D-3/D3/D9/D16, D-4 basal value before administration): 5.45±2.82% and 5.45%
- cold pain threshold of the rats compared with the vehicle control ([4]; summary in words): not significantly improved
- Mean value of acetone-induced foot withdrawal response score ([5]; 0.1 mg/kg, D-3/D3/D9, D8): 3.70
- Mean value of response frequency of cold allodynia ([5]; 0.1 mg/kg, D-3/D3/D9, D8): 63.50%
- Mean value of acetone-induced foot withdrawal response score ([5]; 0.1 mg/kg, D-3/D3/D9, D15): 1.80
- Mean value of response frequency of cold allodynia ([5]; 0.1 mg/kg, D-3/D3/D9, D15): 33.40%
- Mean value of acetone-induced foot withdrawal response score [5, 7]: 0.60
- Mean value of response frequency of cold allodynia [5, 7]: 13.40%
- Mean value of acetone-induced foot withdrawal response score ([5]; 0.5 mg/kg, D-3/D3/D9, D8): 2.50
- Mean value of response frequency of cold allodynia ([5]; 0.5 mg/kg, D-3/D3/D9, D8): 50.10%
- Mean value of acetone-induced foot withdrawal response score ([5]; 0.5 mg/kg, D-3/D3/D9, D15): 1.00
- Mean value of response frequency of cold allodynia ([5]; 0.5 mg/kg, D-3/D3/D9, D15): 23.20%
- Mean value of acetone-induced foot withdrawal response score [5, 8]: 0.50
- Mean value of response frequency of cold allodynia [5, 8]: 13.30%
- Mean value of acetone-induced foot withdrawal response score ([5]; 2.5 mg/kg, D-3/D3/D9, D8): 3.30
- Mean value of response frequency of cold allodynia ([5]; 2.5 mg/kg, D-3/D3/D9, D8): 70.0%
- Mean value of acetone-induced foot withdrawal response score ([5]; 2.5 mg/kg, D-3/D3/D9, D15): 0.70
- Mean value of response frequency of cold allodynia ([5]; 2.5 mg/kg, D-3/D3/D9, D15): 19.90%
- Mean value of acetone-induced foot withdrawal response score [5, 9]: 0.90
- Mean value of response frequency of cold allodynia [5, 9]: 19.90%
- Mean value of mechanical paw withdrawal threshold ([6]; 0.02 mg/kg, D-3/D3/D9/D16, D7): 8.87 ± 1.98 g
- Mean value of mechanical paw withdrawal threshold ([6]; 0.02 mg/kg, D-3/D3/D9/D16, D14): 7.22 ± 0.77 g
- Mean value of mechanical paw withdrawal threshold ([6]; 0.02 mg/kg, D-3/D3/D9/D16, D21): 14.22 ± 2.63 g
- Mean value of mechanical paw withdrawal threshold ([6]; 0.02 mg/kg, D-3/D3/D9/D16, D-5 basal value before administration): 23.50 ± 1.68 g
- Mean value of mechanical paw withdrawal threshold ([6]; 0.5 mg/kg, D-3/D3/D9/D16, D7): 7.62 ± 1.18 g
- Mean value of mechanical paw withdrawal threshold ([6]; 0.5 mg/kg, D-3/D3/D9/D16, D14): 10.73 ± 1.60 g
- Mean value of mechanical paw withdrawal threshold ([6]; 0.5 mg/kg, D-3/D3/D9/D16, D21): 16.37 ± 2.36 g
- Mean value of mechanical paw withdrawal threshold ([6]; 0.5 mg/kg, D-3/D3/D9/D16, D-5 basal value before administration): 22.77 ± 1.71 g
- mechanical paw withdrawal threshold of rats compared with the Vehicle control ([6]; summary in words): significantly increased
